{"source": "paper PMC12787591", "about": "(Nutrients, 2025)", "biological_target": "T1, α-amylase (α-salivary amylase)", "T1 construct": "gene AMY1A", "experiment": "enzyme inhibition assay with soluble starch and […],5-dinitrosalicylic acid", "type": "biochemical, Homo sapiens"}
{"smiles": "OC[C@H]1NC[C@H](O)[C@@H](O)[C@@H]1O", "note": "[DNJ, 1-Deoxynojirimycin]", "values": [{"measurement": "α-Amylase Experiment / IC50", "value": 22.69, "unit": "µg/mL"}]}
